Measured values from paper PMC11714206, “Massively Parallel Screening of Toll/Interleukin‐1 Receptor (TIR)‐Derived Peptides Reveals Multiple Toll‐Like Receptors (TLRs)‐Targeting Immunomodulatory Peptides” (Advanced Science, 2024).
Each block holds one sequence with its values, some of them ahead of it.

What was measured:
MyD88^TIR = molecular target: T1, MyD88^TIR (Homo sapiens, UniProt Q99836); test: T‐Surf phage library (P8 and P3) selection against MyD88^TIR, four rounds, NGS read counts; assay type: binding; conditions: for Rank (after): P3_MyD88: rank by count after grouping; for Rank (before): P3_MyD88: rank by count before grouping; for Population: P3_MyD88 pool: P3 T-Surf phage library, 4th round of selection against MyD88 TIR, share of NGS reads; for P3_MyD88 Rank (after) / P3_MyD88 Rank (before): P3 library
T1 construct: MyD88 (residues 148–296); 6xHis; made in house; host or cells: E. coli BL21 (DE3)
How it was run: (§1)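 Library of 190 946 TIR‐derived peptides on P8 or P3 was panned on immobilized TIR domain coated at 5 µg mL^−1, BSA‐blocked, 1 h binding at RT, PBS/0.5% Tween‐20 washes, HCl elution, TG1 amplification. Fourth‐round pools were PCR‐barcoded, sequenced (100 bp paired‐end, Phred ≥30), and peptides ranked by read counts.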

MAL^TIR = molecular target: T2, MAL^TIR (Homo sapiens, UniProt P58753); test: T‐Surf phage library (P8 and P3) selection against MAL^TIR, four rounds, NGS read counts; assay type: binding; conditions: for Population: P3_MAL pool: P3 T-Surf phage library, 4th round of selection against MAL TIR, share of NGS reads; for P3_MAL Rank (after) / P3_MAL Rank (before): P3 library; for P8_MAL Rank (after) / P8_MAL Rank (before): P8 library
T2 construct: MAL (residues 79–221); 6xHis; made in house; host or cells: E. coli BL21 (DE3)
How it was run: as §1

[1] = P3_MAL: rank by count after grouping
[2] = P3_MAL: rank by count before grouping
[3] = selection against MyD88, rank after grouping
[4] = selection against MyD88, rank before grouping
[5] = selection against MAL, rank after grouping
[6] = selection against MAL, rank before grouping
[7] = selection against MyD88 TIR, rank by count after grouping
[8] = selection against MyD88 TIR, rank by count before grouping
[9] = selection against MAL TIR, rank by count after grouping
[10] = selection against MAL TIR, rank by count before grouping
[11] = 4R selection against MAL, rank after grouping
[12] = 4R selection against MAL, rank before grouping

T1 sequence (Q99836 148-296): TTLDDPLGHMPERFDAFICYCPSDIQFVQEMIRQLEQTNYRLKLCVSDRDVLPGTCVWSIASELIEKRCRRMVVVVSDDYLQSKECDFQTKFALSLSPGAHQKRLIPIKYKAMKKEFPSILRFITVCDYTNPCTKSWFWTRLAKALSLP
T2 sequence (P58753 79-221): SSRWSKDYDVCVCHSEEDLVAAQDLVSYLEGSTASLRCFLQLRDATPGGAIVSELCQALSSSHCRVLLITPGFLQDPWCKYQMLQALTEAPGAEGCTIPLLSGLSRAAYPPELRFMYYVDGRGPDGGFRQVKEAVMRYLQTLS

Sequence: RLLKWKEALHQFHSW
Rank (after) (MyD88^TIR): 130
Rank (before) (MyD88^TIR): 708
Rank (after) (MAL^TIR; [1]): 136
Rank (before) (MAL^TIR; [2]): 436

Sequence: SSFREGLWHLLELSKK
Population (MyD88^TIR): 0.00553%
Population (MAL^TIR): 0.00413%

Sequence: NQWRNALTAAANLRL
P3_MyD88 Rank (after) (MyD88^TIR; [3]): 507
P3_MyD88 Rank (before) (MyD88^TIR; [4]): 3498
P3_MAL Rank (after) (MAL^TIR; [5]): 550
P3_MAL Rank (before) (MAL^TIR; [6]): 3366

Sequence: LQNQWKLALTKVASL
Rank (after) (MyD88^TIR): 100
Rank (before) (MyD88^TIR): 374
Rank (after) (MAL^TIR; [1]): 132
Rank (before) (MAL^TIR; [2]): 327

Sequence: LKWGDPYFWSKLRFA
P3_MyD88 Rank (after) (MyD88^TIR; [7]): 207
P3_MyD88 Rank (before) (MyD88^TIR; [8]): 1061
Rank (after) (MAL^TIR; [1]): 474
Rank (before) (MAL^TIR; [2]): 2222

Sequence: NQWRNALYEAANLS
Rank (after) (MyD88^TIR): 184
Rank (before) (MyD88^TIR): 1269
P3_MAL Rank (after) (MAL^TIR; [9]): 198
P3_MAL Rank (before) (MAL^TIR; [10]): 1055

Sequence: NGHESEIIKEIWIPL
Rank (after) (MyD88^TIR): 407
Rank (before) (MyD88^TIR): 3358
Rank (after) (MAL^TIR; [1]): 429
Rank (before) (MAL^TIR; [2]): 3263

Sequence: KEVEGWRDALTKWRA
P3_MyD88 Rank (after) (MyD88^TIR; [7]): 250
P3_MyD88 Rank (before) (MyD88^TIR; [8]): 1304
P3_MAL Rank (after) (MAL^TIR; [11]): 652
P3_MAL Rank (before) (MAL^TIR; [12]): 3567

Sequence: ARLPAICIVIWCSVA
Rank (after) (MyD88^TIR): 140
Rank (before) (MyD88^TIR): 935
Rank (after) (MAL^TIR; [1]): 106
Rank (before) (MAL^TIR; [2]): 170

Sequence: NQWRNALTAAANLS
Population (MyD88^TIR): 0.00553%
Population (MAL^TIR): 0.0162%
Rank (after) (MAL^TIR; [1]): 102
Rank (before) (MAL^TIR; [2]): 105

Sequence: LNGAIRIFGANCVMR
P3_MyD88 Rank (after) (MyD88^TIR; [3]): 494
P3_MyD88 Rank (before) (MyD88^TIR; [4]): 2400
P3_MAL Rank (after) (MAL^TIR; [5]): 534
P3_MAL Rank (before) (MAL^TIR; [6]): 2194

Sequence: YTALTNSGFHTFREM
P3_MyD88 Rank (after) (MyD88^TIR; [7]): 213
P3_MyD88 Rank (before) (MyD88^TIR; [8]): 1675
P3_MAL Rank (after) (MAL^TIR; [5]): 500
P3_MAL Rank (before) (MAL^TIR; [6]): 1548

Sequence: YTALTNSGFHTFRDND
Population (MyD88^TIR): 0.00291%
Rank (after) (MAL^TIR; P8_MAL: rank by count after grouping): 105
Rank (before) (MAL^TIR; P8_MAL: rank by count before grouping): 584

Sequence: NQWKLALTKVANLV
P3_MyD88 Rank (after) (MyD88^TIR; 4R selection against MyD88, rank after grouping): 579
P3_MyD88 Rank (before) (MyD88^TIR; 4R selection against MyD88, rank before grouping): 3536
P3_MAL Rank (after) (MAL^TIR; [11]): 638
P3_MAL Rank (before) (MAL^TIR; [12]): 3421

Sequence: DIQRSRFKDDADLVGQ
Rank (after) (MyD88^TIR): 391
Rank (before) (MyD88^TIR): 2068
Rank (after) (MAL^TIR; [1]): 130
Rank (before) (MAL^TIR; [2]): 1958

Sequence: EWIREGLWRLLELSKK
Rank (after) (MyD88^TIR): 96
Rank (before) (MyD88^TIR): 361
Rank (after) (MAL^TIR; [1]): 135
Rank (before) (MAL^TIR; [2]): 411

Results, then the sequence that gave them:

Population (MyD88^TIR): 0.00495%
Rank (after) (MAL^TIR; [1]): 123
Rank (before) (MAL^TIR; [2]): 329
Sequence: LKWGYPWFWDRLRFA

Rank (after) (MyD88^TIR): 98
Rank (before) (MyD88^TIR): 680
Rank (after) (MAL^TIR; [1]): 116
Rank (before) (MAL^TIR; [2]): 213
Sequence: LQNQWKLALTKVANLSGW

P3_MyD88 Rank (after) (MyD88^TIR; [3]): 502
P3_MyD88 Rank (before) (MyD88^TIR; [4]): 1556
P8_MAL Rank (after) (MAL^TIR; [9]): 227
P8_MAL Rank (before) (MAL^TIR; [10]): 799
Sequence: YASSSWALDELLRILY

Rank (after) (MyD88^TIR): 141
Rank (before) (MyD88^TIR): 635
P3_MAL Rank (after) (MAL^TIR; [5]): 511
P3_MAL Rank (before) (MAL^TIR; [6]): 1972
Sequence: DSQSSRFKDDADLVG

Population (MyD88^TIR): 0.00437%
Population (MAL^TIR): 0.00376%
Rank (after) (MAL^TIR; [1]): 112
Rank (before) (MAL^TIR; [2]): 177
Sequence: KEVEGWRDALTAAANLSGW

Population (MyD88^TIR): 0.00378%
Population (MAL^TIR): 0.0109%
Sequence: YAFTGHLHRYLVQHGV

Rank (after) (MyD88^TIR): 154
Rank (before) (MyD88^TIR): 1073
P3_MAL Rank (after) (MAL^TIR; [9]): 274
P3_MAL Rank (before) (MAL^TIR; [10]): 844
Sequence: LKWAIRIFGANCVMR

Rank (after) (MyD88^TIR): 155
Rank (before) (MyD88^TIR): 549
P3_MAL Rank (after) (MAL^TIR; [9]): 278
P3_MAL Rank (before) (MAL^TIR; [10]): 712
Sequence: WFWDKLIYALSRNPH

P8_MAL Rank (after) (MAL^TIR; [5]): 495
P8_MAL Rank (before) (MAL^TIR; [6]): 2116
Sequence: LFFWESLKNVLRKPGL

P8_MAL Rank (after) (MAL^TIR; [5]): 527
P8_MAL Rank (before) (MAL^TIR; [6]): 1722
Sequence: AFFWTQLSTVMGKPTM
